20 compounds from US12084472B2 (Ardelyx, Inc., priority 2015, dated 2024) can be followed below.

Marks after values point to notes of the source that are not given here.

The target in the first assay is T1, human TGR5 (Homo sapiens, UniProt Q8TDU6).
T1 construct: expressed in transfected cells; host or cells: HEK293
T1 sequence (Q8TDU6 1-330): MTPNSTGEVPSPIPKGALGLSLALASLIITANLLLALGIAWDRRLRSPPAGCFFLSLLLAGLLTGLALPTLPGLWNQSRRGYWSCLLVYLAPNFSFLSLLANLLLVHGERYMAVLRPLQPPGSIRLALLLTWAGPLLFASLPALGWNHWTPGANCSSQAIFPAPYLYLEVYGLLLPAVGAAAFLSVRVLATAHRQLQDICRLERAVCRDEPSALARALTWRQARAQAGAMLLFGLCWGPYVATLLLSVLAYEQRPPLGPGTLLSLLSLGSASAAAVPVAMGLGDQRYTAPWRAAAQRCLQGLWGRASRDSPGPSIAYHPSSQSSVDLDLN
Nature of the assay: Cell-based TGR5 assay (cAMP generation, HTRF). The note with it: HEK293 cells stably transfected with human TGR5; cAMP by HTRF; 30 minutes at 37° C.; read-out: pEC50 Human TGR5 (converted). The method, boiled down:
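First, compounds in 3-fold serial dilution were placed in HBSS with 10 mM HEPES pH 7.4 and 0.5 mM IBMX. Next, human TGR5-expressing HEK293 cells were added and incubated 30 min at 37° C. Finally, cAMP was detected by HTRF and pEC50 derived by logistic fitting.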
A general note: TR-FRET usually uses a lanthanide donor and a delayed reading to cut background.
Take `CC(C)CN(CCCCNC(=O)NC[C@H](O)[C@@H](O)[C@H](O)[C@H](O)CO)S(=O)(=O)c1ccc(Cl)c(COC2(c3cnccc3-c3ccccc3OC3CC3)CC2)c1` [Compound I-762, 4-chloro-3-((1-(4-(2-cyclopropoxyphenyl)pyridin-3-yl)cyclopropoxy)methyl)-N-isobutyl-N-(4-(3-((2S,3R,4R,5R)-2,3,4,5,6-pentahydroxyhexyl)ureido)butyl)benzenesulfonamide]: the EC50 was < 100 nM. Consider `CC(C)N(CCCCNC(=O)N[C@@H](CO)[C@@H](O)[C@H](O)[C@H](O)CO)S(=O)(=O)c1cc(COC2(c3cnccc3-c3ccccc3OC3CC3)CC2)c(Cl)cc1F` [Compound I-763, 4-chloro-5-((1-(4-(2-cyclopropoxyphenyl)pyridin-3-yl)cyclopropoxy)methyl)-2-fluoro-N-isopropyl-N-(4-(3-((2S,3R,4S,5R)-1,3,4,5,6-pentahydroxyhexan-2-yl)ureido)butyl) benzenesulfonamide], for which the EC50 was < 100 nM. Same read-out and setting: under `CC(C)N(CCCCNC(=O)NC[C@H](O)[C@@H](O)[C@H](O)[C@H](O)CO)S(=O)(=O)c1cc(COC2(c3cnccc3-c3ccccc3OC3CC3)CC2)c(Cl)cc1F` [Compound I-764, 4-chloro-5-((1-(4-(2-cyclopropoxyphenyl)pyridin-3-yl)cyclopropoxy)methyl)-2-fluoro-N-isopropyl-N-(4-(3-((2S,3R,4R,5R)-2,3,4,5,6-pentahydroxyhexyl)ureido)butyl) benzenesulfonamide] stands < 100 nM; under `COc1cccc(Cl)c1-c1ccncc1C1(OCc2cc(Cl)ccc2Cl)CC1` [Compound I-765, 4-(2-chloro-6-methoxyphenyl)-3-(1-((2,5-dichlorobenzyl)oxy)cyclopropyl)pyridine], < 100 nM. Still for that read-out and setting: under `CC(=O)NCCCCN(C)S(=O)(=O)c1ccc(Cl)c(COC2(c3cnccc3-c3ccccc3OC3CC3)CC2)c1` [Compound I-766, N-(4-((4-chloro-3-((1-(4-(2-cyclopropoxyphenyl)pyridin-3-yl)cyclopropoxy)methyl)-N-methylphenyl)sulfonamido)butyl)acetamide] stands < 100 nM; under `CN(CCCCNC(=O)NCCCCN(C)S(=O)(=O)c1ccc(Cl)c(COC2(c3cnccc3-c3ccccc3OC3CC3)CC2)c1)S(=O)(=O)c1ccc(Cl)c(COC2(c3cnccc3-c3ccccc3OC3CC3)CC2)c1` [Compound I-767, N,N′-((carbonylbis(azanediyl))bis(butane-4,1-diyl))bis(4-chloro-3-((1-(4-(2-cyclopropoxyphenyl)pyridin-3-yl)cyclopropoxy)methyl)-N-methylbenzenesulfonamide)], 126 to 1000 nM; under `Clc1ccc(Cl)c(COC2(c3cnccc3-c3ccccc3Cl)CC2)c1` [Compound I-768, 4-(2-chlorophenyl)-3-(1-((2,5-dichlorobenzyl)oxy)cyclopropyl)pyridine], 126 to 1000 nM. Take `CN1CCCN(S(=O)(=O)c2ccc(Cl)c(COC3(c4cnccc4-c4ccccc4OC4CC4)CC3)c2)CC1` [Compound I-769, 1-((4-chloro-3-((1-(4-(2-cyclopropoxyphenyl)pyridin-3-yl)cyclopropoxy)methyl)phenyl)sulfonyl)-4-methyl-1,4-diazepane]: the EC50 is 126 to 1000 nM.

In the case of `O=S(=O)(Nc1nccs1)c1ccc(Cl)c(COC2(c3cnccc3-c3ccccc3OC3CC3)CC2)c1` [Compound I-770, 4-chloro-3-((1-(4-(2-cyclopropoxyphenyl)pyridin-3-yl)cyclopropoxy)methyl)-N-(thiazol-2-yl)benzenesulfonamide], the EC50 was < 100 nM. As for `O=S(=O)(Nc1ccccc1)c1ccc(Cl)c(COC2(c3cnccc3-c3ccccc3OC3CC3)CC2)c1` [Compound I-771, 4-chloro-3-((1-(4-(2-cyclopropoxyphenyl)pyridin-3-yl)cyclopropoxy)methyl)-N-phenylbenzenesulfonamide], the EC50 was < 100 nM. The same measure, in the same setting: under `O=S(=O)(NCC(F)(F)F)c1ccc(Cl)c(COC2(c3cnccc3-c3ccccc3OC3CC3)CC2)c1` [Compound I-772, 4-chloro-3-((1-(4-(2-cyclopropoxyphenyl)pyridin-3-yl)cyclopropoxy)methyl)-N-(2,2,2-trifluoroethyl)benzenesulfonamide] stands < 100 nM; under `Cc1ccccc1-c1ccncc1C1(OCc2cc(Cl)ccc2Cl)CC1` [Compound I-773, 3-(1-((2,5-dichlorobenzyl)oxy)cyclopropyl)-4-(o-tolyl)pyridine], 126 to 1000 nM. On the same count and under the same terms, with `COc1cc(C)ccc1-c1ccncc1C1(OCc2cc(Cl)ccc2Cl)CC1` [Compound I-774, 3-(1-((2,5-dichlorobenzyl)oxy)cyclopropyl)-4-(2-methoxy-4-methylphenyl)pyridine] the figure was 126 to 1000 nM. Turning to `O=C(NCCCCNS(=O)(=O)c1ccc(Cl)c(COC2(c3c[n+]([O-])ccc3-c3ccccc3OC3CC3)CC2)c1)[C@@H](O)[C@@H](O)[C@H](O)[C@@H](O)CO` [Compound I-775, 3-(1-((2-chloro-5-(N-(4-((2S,3S,4R,5S)-2,3,4,5,6-pentahydroxyhexanamido)butyl)sulfamoyl)benzyl)oxy)cyclopropyl)-4-(2-cyclopropoxyphenyl)pyridine 1-oxide], the EC50 is 126 to 1000 nM.

With `CN(CCCCNC(=O)N[C@@H](CO)[C@@H](O)[C@@H](O)[C@H](O)CO)S(=O)(=O)c1ccc(Cl)c(COC2(c3cnccc3-c3ccccc3OC3CC3)CC2)c1` [Compound I-776, 4-chloro-3-((1-(4-(2-cyclopropoxyphenyl)pyridin-3-yl)cyclopropoxy)methyl)-N-methyl-N-(4-(3-((2S,3R,4R,5R)-1,3,4,5,6-pentahydroxyhexan-2-yl)ureido)butyl)benzenesulfonamide], the EC50 is < 100 nM.

Consider `CN1C[C@@H]2C[C@H]1CN2S(=O)(=O)c1ccc(Cl)c(COC2(c3cnccc3-c3ccccc3OC3CC3)CC2)c1` [Compound I-777, (1S,4S)-2-((4-chloro-3-((1-(4-(2-cyclopropoxyphenyl)pyridin-3-yl)cyclopropoxy)methyl)phenyl)sulfonyl)-5-methyl-2,5-diazabicyclo[2.2.1]heptane], for which the EC50 was 126 to 1000 nM. The same measure, in the same setting: with `CN(CCCCNC(=O)N[C@H](CO)[C@@H](O)[C@H](O)[C@H](O)CO)S(=O)(=O)c1ccc(Cl)c(COC2(c3cnccc3-c3ccccc3OC3CC3)CC2)c1` [Compound I-778] the figure was < 100 nM; with `CCC(OCc1cc(Cl)ccc1Cl)c1cnccc1-c1ccccc1OC1CC1` (stereo not drawn) [Compound I-779, 4-(2-cyclopropoxyphenyl)-3-(1-((2,5-dichlorobenzyl)oxy)propyl)pyridine], 1260 to 10000 nM. `CC(=O)N1C[C@@H]2C[C@H]1CN2S(=O)(=O)c1ccc(Cl)c(COC2(c3cnccc3-c3ccccc3OC3CC3)CC2)c1` [Compound I-780, 1-((1S,4S)-5-((4-chloro-3-((1-(4-(2-cyclopropoxyphenyl)pyridin-3-yl)cyclopropoxy)methyl)phenyl)sulfonyl)-2,5-diazabicyclo[2.2.1]heptan-2-yl)ethan-1-one]: the EC50 was 126 to 1000 nM.

The test system of another assay is Western diet (WD)-fed mice. Nature of the assay: Mouse model of NAFLD and mild diabetes, Western diet (WD)-fed mice: glucose, insulin, liver lipids, GLP levels. Format: in vivo, C57BL/6 male mice. The note with it: Western diet; liraglutide 0.4 mg/kg BID SQ; I-389 30 mg/kg BID PO; linagliptin 10 mg/kg QD PO; mean±SEM; vehicle WD 2.13 ± 0.14. The protocol: Seven week old C57BL/6 male mice were housed 5/cage. Two cages of mice were put on normal chow (Harlan Teklad 2018), and the remaining cages of mice were put on WD (Harlan Teklad, TD.88137, […]/0.2% cholesterol) to induce NAFLD. After 10 weeks, mice were weighed and fasted for 4 h. Blood was collected to measure fasting glucose levels, processed to plasma for measurement of insulin, triglycerides and total cholesterol. This process was repeated on Day 29 of treatment. Based on body weight and fasted glucose and insulin levels, mice were divided into 5 treatment groups (n=10/group), Table 20. […] Mice were weighed twice weekly throughout the study. On the last day of the study (Day 30, 8 hours after food removal), mice were euthanized. Blood was collected in tubes with inhibitors to block DPP-4 activity and processed to plasma for measurement of liver enzymes and GLP levels using an Ace Alera clinical analyzer and the Multi-Array Assay System from Meso Scale Discovery, respectively. The entire liver was collected, weighed, and a sample was taken and weighed for measurement of triglycerides and total cholesterol.
Data for each group are presented as mean±SEM. Statistical analyses were performed using one-way ANOVA followed by Holm-Sidak's multiple comparisons test. For GLP levels, <statistical significance compared to vehicle (WD) is marked as *, P<0.05; **, P<0.01, ***, P<0.001, and ****, P<0.0001; of linagliptin (WD) versus I-389 alone (WD) or linaglptin+I-389 (WD) is marked as †, P<0.05; ††, P<0.01, of †††, P<0.001, and ††††, P<0.0001; and of I-389 (WD) versus linagliptin (WD)+I-389 (WD) is marked as ^, P<0.05; ^ ^P<0.01, ^ ^^P, P<0.001, and ^ ^^^, P<0.0001. For the remaining parameters, statistical significance compared to vehicle (WD) is marked as *, P<0.05; **, P<0.01, ***, P<0.001, and ****, P<0.0001.
Take `CC#CCn1c(N2CCC[C@@H](N)C2)nc2c1c(=O)n(Cc1nc(C)c3ccccc3n1)c(=O)n2C` [Linagliptin, linagliptin, reference compound]: the Liver weight was 1.77 ± 0.11* g.

Staying with this assay, now noted: Western diet; liraglutide 0.4 mg/kg BID SQ; I-389 30 mg/kg BID PO; linagliptin 10 mg/kg QD PO; mean±SEM; vehicle WD 2.3 ± 0.3.
`CC#CCn1c(N2CCC[C@@H](N)C2)nc2c1c(=O)n(Cc1nc(C)c3ccccc3n1)c(=O)n2C` [Linagliptin, linagliptin, reference compound]: the 4-h fasted insulin was 1.4 ± 0.2** ng/mL.

Staying with this assay, now noted: Western diet; liraglutide 0.4 mg/kg BID SQ; I-389 30 mg/kg BID PO; linagliptin 10 mg/kg QD PO; mean±SEM; vehicle WD 8.56 ± 0.25.
For `CC#CCn1c(N2CCC[C@@H](N)C2)nc2c1c(=O)n(Cc1nc(C)c3ccccc3n1)c(=O)n2C` [Linagliptin, linagliptin, reference compound], the Hepatic cholesterol is 10.17 ± 0.21*** mg/g.

Staying with this assay, now noted: Western diet; liraglutide 0.4 mg/kg BID SQ; I-389 30 mg/kg BID PO; linagliptin 10 mg/kg QD PO; mean±SEM; vehicle WD 145.40 ± 14.80.
For the compound `CC#CCn1c(N2CCC[C@@H](N)C2)nc2c1c(=O)n(Cc1nc(C)c3ccccc3n1)c(=O)n2C` [Linagliptin, linagliptin, reference compound], the Hepatic triglycerides was found to be 117.90 ± 6.76 mg/g.

Staying with this assay, now noted: Western diet; liraglutide 0.4 mg/kg BID SQ; I-389 30 mg/kg BID PO; linagliptin 10 mg/kg QD PO; mean±SEM; vehicle WD 239 ± 13.
On to `CC#CCn1c(N2CCC[C@@H](N)C2)nc2c1c(=O)n(Cc1nc(C)c3ccccc3n1)c(=O)n2C` [Linagliptin, linagliptin, reference compound], for which the 4-h fasted glucose is listed as 185 ± 6** mg/dL.
